Experiment [1] deals with Human adipose arterioles (HAAs). Nature of the experiment: Dilation of human adipose arterioles (HAAs), cannulated, video diameter measurement. Conditions: for max dilation: 10^−7 mol/L, pre-constricted with endothelin-1. As for the experimental part:
Human adipose arterioles (HAAs) were extracted from adipose tissues obtained from subjects without coronary artery disease (7 normotensives and 7 hypertensives). The HAAs (100-200 μm in diameter) were cannulated with 2 glass micropipettes in an organ chamber, and the internal diameter of arterioles was measured with a video system. Arterioles were pre-constricted with endothelin-1 (10-50 nmol/L) to reduce the passive diameter by 30-50%. Relaxation was measured in response to the increasing concentrations of 5,6-diHETE lactone (10^−4-10^−1 μmol/L). To examine the involvement of NO in the 5,6-diHETE lactone-induced dilation, relaxation responses were determined in the presence or absence of nitric oxide synthase (NOS) antagonist (100 μmol/L N[omega]-nitro-Larginine methyl ester [L-NAME]).
Endothelial cell denudation was achieved by perfusion of the vessels with pre-warmed air as previously described (H. Miura, Circ. Res. 92 (2003)). At the end of each experiment, papaverine (100 μmol/L), an endothelium-independent vasodilator, was added to determine the maximal dilation for normalization of dilator responses. Vasodilator responses are expressed as the percentage of maximal dilation, with 100% representing complete relaxation (maximal diameter).

Experiment [2] deals with mouse mesenteric resistance arteries. Nature of the experiment: Vascular reactivity in mouse mesenteric resistance arteries (wire myograph). Conditions: 10^−5 mol/L, pre-constricted with U-46619 0.1 μmol/L, n=11. As for the experimental part: On the day preceding the experiment, adult male mice (age 3-6 months) were decapitated and mesenteric tissue was dissected and placed on an agar plate with ice-cold HEPES-physiological saline solution (PSS) containing: 123 mM NaCl, 4.7 mM KCl, 2.5 mM CaCl2*2H2O, 1.2 mM MgSO4*7H2O, 20 mM NaHCO3, 1.2 mM KH2PO4, 26 μM EDTA, 11 mM glucose and 2.38 mg/ml HEPES Fat and connective tissue were carefully removed, arterioles (150-200 μm diameter) were cut into 3 mm segments and stored overnight at 4° C. The vessels were then mounted carefully on two tungsten wires (0.025 mm diameter) with care not to damage the endothelium, and mounted on a four-chamber wire myograph (DMT, Denmark, Model 620 M). Arteries were then equilibrated at 37° C. for 30 min in the myograph chamber filled with PSS and constantly bubbled with gas containing 21% O2, 74% N2, and 5% CO2 and set at 1 mN resting tension obtained in the LabChart Pro software (AD instruments, Oxfordshire, UK). […] After contraction reached steady state, cumulative concentrations of 5,6-diHETE lactone were added (1 μM to 10 μM) in DMSO (up to 0.16%) and the % relaxation responses were determined relative to the relaxation response to 100 μM papaverine.
To evaluate the vasodilation mediated by 5,6-diHETE lactone, mesenteric arteries from C57BL were extracted and monitored for their dilation in a wire myograph chamber under physiological conditions. […]

Experiment [3] has as its system HUVEC. Nature of the experiment: Calcium imaging, intracellular [Ca2+]i increase in HUVEC. Format: cell-based, human. As for the experimental part: HUVECs were plated onto 24-well plates and grown to 70% confluence. To monitor cytosolic Ca^2+ signals, cells were loaded with fluo-3 AM (4 μmol/L; Molecular Probes) and incubated for 40 min at 37° C. in complete medium that contained […] pluronic acid. After washing twice with HEPES buffer that contained (in mmol/L) 1.25 CaCl2, 5.5 D-glucose, 10 HEPES, 5 KCl, 0.5 MgCl2, and 140 NaCl (brought to pH 7.4 with NaOH); the plates were incubated at 37° C. for 15 additional minutes prior to fluorescence imaging. Fluorescence images were acquired every 1 s over the course of 5 min in cells treated with 4α-phorbol-12, 13-didecanoate (4α-PDD; a specific TRPV4 agonist; 10 μmol/L), 5,6-diHETE ((±)5,6-dihydroxy-8Z,11Z,14Z,17Z-eicosatetraenoic acid) 1, 5 lactone (0.01-5 μmol/L) and 5,6-diHETE (hydrolytic isomer of 5,6-EEQ; 2 and 5 μmol/L). The calculated ratio between maximal intensity (F1) and basal intensity (F0) was determine for each experiment and presented as Average±SD.
To investigate the effect of 5,6-diHETE ((±)5,6-dihydroxy-8Z,11Z,14Z,17Z-eicosatetraenoic acid) lactone on cytosolic [Ca^2+]i (FIG. 1), HUVECs were exposed to graded doses of 5,6-diHETE lactone (0.01-5 μmol/L) in ethanol/HEPES buffer, and the intracellular changes in [Ca^2+] were determined by the mean of fluoresces intensity. […] No significant differences in cytosolic [Ca^2+]i levels were detected beyond 0.5 μM lactone. Above this concentration the cytosolic [Ca^2+]i levels reach saturation.
These rapid pathways result in the reduction of epoxide concentrations, and thus, in a decrease in their activity. We therefore tested the ability of the hydrolyzed form compared to the unhydrolyzed form to increase intracellular calcium (FIG. 2).

With `CCC=CCC=CCC=CCC=CCC(O)C1CCCC(=O)O1` (racemic) [5,6-diHETE lactone, 5,6 dihydroxyeicosatetraenoic acid (5,6-diHETE) lactone], in experiment [1] (hypertensive subjects), the max dilation was determined as 40.9%. Moreover, in experiment [1] (hypertensive subjects, L-NAME 100 μmol/L), the “effect of L-NAME on the dilation” value is “no effect”. Moreover, in experiment [1] (normotensive (healthy) arterioles), the “effect of mechanical denudation of the endothelial layer on induced dilation” value was “significantly reduced”. The molecule further had a max dilation in experiment [1] (normotensive subjects) of 58.6%. Moreover, the “reduction of the dilation effect by L-NAME” value in experiment [1] (normotensive subjects, L-NAME 100 μmol/L) is 50%. For the same molecule, in experiment [2], the “% dilation (relative to 100 μM papaverine)” value came out at 29.4±3.1%. In experiment [3], the “concentration beyond which cytosolic [Ca2+]i levels show no significant differences (saturation)” value came to 0.5 µM and the “lowest concentration causing a significant [Ca2+] increase” value worked out at 0.01 µmol/L. Moreover, the “changes in cellular [Ca2+]i” value in experiment [3] (2 μmol/L) is “induced”. Besides, in experiment [3] (Homo sapiens, Fluo4 fluorescence, 0.01-5 μmol/L, read-out: EC50 of [Ca2+]i increase (F1max/F0)), the EC50 was 9.94 nM.
